Measured values: US5559232A, “Carboxamides” (Hoffmann-La Roche Inc., priority 1993, dated 1996)

Key:
human thrombin = human thrombin (Homo sapiens, UniProt P00734); experiment: inhibition of the amidolytic activity of thrombin (chromogenic substrate S-2238); type: biochemical; details: for Ki: human thrombin 0.5 nM, substrate S-2238, pH 7.8, room temperature; for q (ratio of the inhibition of trypsin to the inhibition of thrombin): specificity: Ki trypsin / Ki thrombin
Experimental: A differential inhibition of thrombin and other serine proteases by the above compounds is desirable in order to obtain compounds having as high a specificity as possible and at the same time to avoid possible side-effects.
Specific chromogenic peptide substrates can be used to determine the inhibition of the catalytic activity of the above proteases. The inhibition of the amidolytic activity of thrombin and trypsin by the above guanidines was determined as described hereinafter.
The measurements were carried out on microtitre plates at room temperature. For this, in each well of the plate 150 μl of buffer (50 mM Tris, 100 mM NaCl, 0.1% polyethylene glycol; pH 7.8) were mixed with 50 μl of the inhibitor dissolved in DMSO and diluted in the buffer, and 25 μl of human thrombin (0.5 nM final conc.) were added. After incubation for 10 minutes the reaction was started by the addition of chromogenic substrate S-2238 (H-D-Phe-Pip-Arg-paranitroaniline from Kabivitrum; 10 or 50 μm final conc.) and the hydrolysis of the substrate was followed spectrophotometrically on a kinetic microtiter plate reader for 5 minutes. After graphical presentation of the inhibition curves the Ki values were determined according to the method described in Blochem. J. 55, 1955, 170-171.

trypsin = experiment: inhibition of the amidolytic activity of trypsin (chromogenic substrate S-2251); type: biochemical; details: substrate S-2251, 200 and 750 μM, otherwise analogous to thrombin

SMILES	Ki (human thrombin) [µM]	q (ratio of the inhibition of trypsin to the inhibition of thrombin) (human thrombin)	Ki (trypsin) [µM]
CCCCN(CCC(=O)O)C(=O)[C@H](CC(=O)NCC1CN(C(=N)N)CCO1)NC(=O)OCc1ccccc1 (stereo partly drawn) [Example 6d, 3-[[(S)-3-[4-(amino-imino-methyl)-morpholin-2-ylmethylcarbamoyl]-2-benzyloxycarbonylamino-propionyl]-butyl-amino]propionic acid]	0.94	90	85
N=C(N)N1CCC[C@@H](CNC(=O)C[C@H](NS(=O)(=O)N2CCOCC2)C(=O)N(CCNC(=O)OCc2ccccc2)C2CC2)C1 [Example 23, benzyl 2-[[(S)-3-[(S)-1-(amino-imino-methyl)-piperidin-3-ylmethylcarbamoyl]-2-morpholin-4-ylsulphonylamino-propionyl]cyclopropyl-amino]-ethylcarbamate]	0.0046	2826	13
CCOC(=O)CCN(C(=O)[C@H](CC(=O)NCC1CN(C(=N)N)CCO1)NC(=O)OCc1ccccc1)C1CC1 (stereo partly drawn) [Example 5c, ethyl 3-[[(S)-3-[4-(amino-imino-methyl)-morpholin-2-ylmethylcarbamoyl]-2-benzyloxycarbonylamino-propionyl]-cyclopropyl-amino]-propionate]	0.054	537	29
NC(=NO)N1CCC[C@@H](CNC(=O)C[C@H](NS(=O)(=O)c2ccc3ccccc3c2)C(=O)N(CCNC(=O)c2cnccn2)C2CC2)C1 [Example 22, (S)-N4-[(S)-1-(amino-hydroxyimino-methyl)-piperidin-3-ylmethyl]-N1-cyclopropyl-2-(naphthalen-2-ylsulphonylamino)-N1-[2-(pyrazin-2-ylcarbonylamino)-ethyl]-succinamide]	0.0015	11000	16.5
CCCCN(CCC(=O)OCC)C(=O)[C@H](CC(=O)NC[C@@H]1CCCN(C(=N)N)C1)NC(=O)OCc1ccccc1 [Example 2c, ethyl 3-[[(S)-3-[(S)-1-(amino-imino-methyl)-piperidin-3-ylmethylcarbamoyl]-2-benzyloxycarbonylamino-propionyl]-butylamino]-propionate]	0.077	390	30
N=C(N)N1CCC[C@@H](CNC(=O)C[C@H](NS(=O)(=O)N2CCOCC2)C(=O)N(CCNC(=O)c2ccc(=O)[nH]n2)C2CC2)C1 [Example 25]	0.0013	5538	7.2
CC(C)(C)OC(=O)N[C@@H](CC(=O)NC[C@@H]1CCCN(C(=N)N)C1)C(=O)N(CCNC(=O)c1cnccn1)C1CC1 [Example 19, (S)-N4-[(S)-1-(amino-imino-methyl)-piperidin-3-yimethyl]-2-tert-butoxycarbonylamino-N1-cyclopropyl-N1-(2-pyrazin-2-ylcarbonylamino)-succinamide]	0.0069	449	3.1
CCCCN(CC(=O)OCC)C(=O)[C@H](CC(=O)NC[C@@H]1CCCN(C(=N)N)C1)NC(=O)OCc1ccccc1 [Example 2b, ethyl [[(S)-3-[(S)-1-(amino-imino-methyl)-piperidin-3-ylmethylcarbamoyl]-2-benzyloxycarbonylamino-propionyl]-butyl-amino]acetate]	0.61	92	56
CCOC(=O)CN(C(=O)[C@H](CC(=O)NC[C@@H]1CCCN(C(=N)N)C1)NC(=O)OCC1CCCCC1)C1CC1 [Example 7, ethyl [[(S)-3-[(S)-1-(amino-imino-methyl)-piperidin-3-ylmethylcarbamoyl]-2-cyciohexylmethoxycarbonylamino-propionyl]-cyclopropyl-amino]-acetate]	2	25	50
CCCCN(CC(=O)O)C(=O)[C@H](CC(=O)NC[C@@H]1CCCN(C(=N)N)C1)NC(=O)OCc1ccccc1 [Example 4b, [[(S)-3-[(S)-1-(amino-imino-methyl)-piperidin-3-ylmethylcarbamoyl]-2-benzyloxycarbonylamino-propionyl]-butyl-amino]-acetic acid]	0.064	438	28
N=C(N)N1CCOC(CNC(=O)C[C@H](NC(=O)OCc2ccccc2)C(=O)N(CC(=O)O)C2CC2)C1 (stereo partly drawn) [Example 6a]	0.45	311	
N=C(N)N1CCC[C@@H](CNC(=O)C[C@H](NS(=O)(=O)N2CCOCC2)C(=O)N(CCNC(=O)c2cnccn2)C2CC2)C1 [Example 24, (S)-N4-[(S)-1-(amino-imino-methyl)-piperidin-3-ylmethyl]-N1-cyclopropyl-2-morpholin-4-ylsulphonylamino-N1-(2-pyrazin-2-ylcarbonylamino-ethyl)-succinamide]	0.0012	5917	7.1
CCCCN(CC(=O)OCC)C(=O)[C@H](CC(=O)NCC1CN(C(=N)N)CCO1)NC(=O)OCc1ccccc1 (stereo partly drawn) [Example 5b, ethyl [[(S)-3-[4-(amino-imino-methyl)-morpholin-2-ylmethylcarbamoyl]-2-benzyloxycarbonylaminopropionyl]-butyl-amino]-acetate]	0.03	5000	150
CCOC(=O)CN(C(=O)[C@H](CC(=O)NC[C@@H]1CCCN(C(=N)N)C1)NC(=O)NCc1ccco1)C1CC1 [Example 9b1, Ethyl [[(S)-3-[(S)-1-(amino-imino-methyl)-piperidin-3-ylmethylcarbamoyl]-2-(3-furan-2-ylmethyl-ureido)-propionyl]-cyclopropyl-amino]-acetate]	1.5	53	80
N=C(N)N1CCC[C@@H](CNC(=O)C[C@H](NC(=O)CSc2ncccn2)C(=O)N(CCNC(=O)c2cnccn2)C2CC2)C1 [Example 20, (S)-N4-[(S)-1-(amino-imino-methyl)-piperidin-3-ylmethyl]-N1-cyclopropyl-N1-(2-pyrazin-2-ylcarbonylamino-ethyl)-2-pyrimidin-2-ylsulphanylacetylamino-succinamide]	0.00086	5233	

Further lines, results first:

Ki (human thrombin) [µM]	q (ratio of the inhibition of trypsin to the inhibition of thrombin) (human thrombin)	Ki (trypsin) [µM]	SMILES
0.0023	3870	8.9	N=C(N)N1CCC[C@@H](CNC(=O)C[C@H](NC(=O)CCc2c[nH]c3ccccc23)C(=O)N(CCNC(=O)c2cnccn2)C2CC2)C1 [Example 21a, (S)-N4-[(S)-1-(amino-imino-methyl)-piperidin-3-ylmethyl]-N1-cyclopropyl-2-(3-indol-3-yl-propionylamino)-N1-(2-pyrazin-2-ylcarbonylamino-ethyl)-succinamide]
2.7	26	70	CCCCC(=O)N[C@@H](CC(=O)NC[C@@H]1CCCN(C(=N)N)C1)C(=O)N(CC(=O)OCC)C1CC1 [Example 13a, Ethyl [[(S)-3-[(S)-1-(amino-imino-methyl)-piperidin-3-ylmethylcarbamoyl]-2-pentanoylamino-propionyl]-cyclopropyl-amino]acetate]
2.6	35	91	CCOC(=O)CN(C(=O)[C@H](CC(=O)NC[C@@H]1CCCN(C(=N)N)C1)NC(=O)Cc1ccccc1)C1CC1 [Example 13e]
1.3	73	95	CCOC(=O)CN(C(=O)[C@H](CC(=O)NC[C@@H]1CCCN(C(=N)N)C1)NC(=O)NCc1ccccc1)C1CC1 [Example 9a, ethyl [[(S)-3-[(S)-1-(amino-imino-methyl)-piperidin-3-ylmethylcarbamoyl]-2-(3-benzyi-ureido)-propionyl]-cyclopropylamino]-acetate]
0.25	332	83	N=C(N)N1CCC[C@@H](CNC(=O)C[C@H](NC(=O)c2ccccc2)C(=O)N(CC(=O)O)C2CC2)C1 [Example 14d, [[(S)-3-[(S)-1-(amino-imino-methyl)-piperidin-3-ylmethylcarbarnoyl]-2-benzoylamino-propionyl]-cyclopropyl-amino]-acetic acid]
0.0013	19231		N=C(N)N1CCC[C@@H](CNC(=O)C[C@H](NC(=O)COc2ccccc2)C(=O)N(CCNC(=O)c2cnccn2)C2CC2)C1 [Example 21d, N4-[(S)-1-(amino-imino-methyl)-piperidin-3-ylmethyl]N1-cyclopropyl-2-phenoxyacetylamino-N1-(2-pyrazin-2-ylcarbonylamino-ethyl)-succinamide]
4.7	5	23.5	CCOC(=O)CN(C(=O)[C@H](CC(=O)NC[C@@H]1CCCN(C(=N)N)C1)NC(=O)c1ccccc1)C1CC1 [Example 13d, ethyl [[(S)-3-[(S)-1-(amino-imino-methyl)-piperidin-3-ylmethylcarbamoyl]-2-benzoylamino-propionyl]-cyclopropyl-amino]-acetate]
